≈ marks a conversion by molar mass, not a printed value.

Data set [1] relates to Mycobacterium tuberculosis. Description: Potency index, ratio of compound MIC to metronidazole MIC for antitubercular activity against Mycobacterium tuberculosis H37Rv ATCC 27294 under low oxygen condition. In kind it is functional.
Data set [2] has as its system Mycobacterium tuberculosis. Description: Antitubercular activity against Mycobacterium tuberculosis H37Rv ATCC 27294 after 5 days under aerobic condition. To be noted: H37Rv ATCC 27294, 120 h. In kind it is functional, organism-based.
The test system of data set [3] is Mycobacterium tuberculosis. Description: Antitubercular activity against Mycobacterium tuberculosis H37Rv ATCC 27294 after 10 days under low oxygen condition followed by incubation under aerobic condition for 28 hrs by LORA. In kind it is functional, organism-based.
Data set [4] concerns Mycobacterium tuberculosis. Description: Bactericidal activity against Mycobacterium tuberculosis H37Rv ATCC 27294 assessed as concentration required for 2 log kill after 21 days under aerobic condition by colony forming assay. The note with it: H37Rv ATCC 27294, 504 h. In kind it is functional.
Data set [5] is described as follows: Solubility of compound in Middlebrook 7H9 broth media at pH 6.4 at 200 uM after 90 mins by UV-VIS spectrophotometric method. The format is physicochemical. The note with it: buffer, pH 6.4, 1.5 h.
In data set [6] the test system is Mycobacterium tuberculosis. Description: Antitubercular activity against luxABCDE expressing Mycobacterium tuberculosis H37Rv infected in mouse J774 macrophages assessed as log reduction in bacterial colonies at 10.9 uM measured after 4 days under aerobic condition by luminescence assay. The format is functional.
Data set [7] has as its system Vero. Description: Cytotoxicity against African green monkey Vero cells after 2 days by CellTiter-Glo luminescent cell viability assay. The note with it: Chlorocebus sabaeus, 48 h. The format is ADME, cell-based.
The test system of data set [8] is Mycobacterium tuberculosis. Description: Antitubercular activity against luxABCDE expressing Mycobacterium tuberculosis H37Rv infected in mouse J774 macrophages assessed as log reduction in bacterial colonies at 2.6 uM measured after 4 days under aerobic condition by luminescence assay. In kind it is functional.
The test system of data set [9] is Mycobacterium tuberculosis. Description: Antitubercular activity against luxABCDE expressing Mycobacterium tuberculosis H37Rv infected in mouse J774 macrophages assessed as log reduction in bacterial colonies at 30 uM measured after 4 days under aerobic condition by luminescence assay. The format is functional.
The test system of data set [10] is Mycobacterium tuberculosis. Description: Antitubercular activity against luxABCDE expressing Mycobacterium tuberculosis H37Rv infected in human THP1 cells measured after 3 days by luminescence assay. The note with it: THP-1, 72 h. The format is functional, organism-based.
Data set [11] relates to HepG2. Description: Cytotoxicity against human HepG2 cells at 100 uM after 3 days by CellTiter-Glo luminescent cell viability assay. The format is cell-based. The note with it: HepG2, 72 h. On the technique in general: ATP-based viability assays read luminescence as a measure of living cells.
For data set [12] the following is noted: human, caco-2, 2 h, 10 µM.
Description: Apparent permeability of the compound across basolateral side to apical side in human Caco2 cells monolayer at 10 uM after 2 hrs by LC-MS/MS analysis
For data set [13], the system named is Mycobacterium tuberculosis. Description: Antitubercular activity against luxABCDE expressing Mycobacterium tuberculosis H37Rv infected in mouse J774 macrophages assessed as log reduction in bacterial colonies at 20 uM measured after 4 days under aerobic condition by luminescence assay. In kind it is functional.
The nature of data set [14]: Protein binding in human plasma at 5 uM after 4 hrs by LC-MS/MS analysis.
The conditions of data set [15]: human, caco-2, 2 h, 10 µM. This is another data set of the same source.
Description: Apparent permeability of the compound across apical side to basolateral side in human Caco2 cells monolayer at 10 uM after 2 hrs by LC-MS/MS analysis
Data set [16] in a line: Half life in human liver S9 microsomes at 1 uM in absence of NADPH by LC-MS/MS analysis.
A short description of data set [17]: Half life in human liver S9 microsomes at 1 uM in presence of NADPH by LC-MS/MS analysis.

Take `O=C(NCCCCn1cnc([N+](=O)[O-])n1)c1nc2ccccc2s1`: the Ratio in data set [1] is listed as 6 - 9. In data set [2], the IC50 is 4.9 µM, the 90% effect level (IC90) was put at 7.4 µM and the MIC worked out at 6.7 µM (≈ 2.32 µg/mL). In data set [3], this compound displayed an IC50 of 26 µM, an IC90 of 29.2 µM and an MIC of 23.4 µM (≈ 8.11 µg/mL). Moreover, the MBC in data set [4] is 10.9 µM (≈ 3.78 µg/mL). Besides, the solubility entry in data set [5] is “Soluble”. In addition, in data set [6], the “log(activity)” value is 2.4. The compound further displayed an IC50 in data set [7] of more than 100 µM.

`NNC(=O)c1ccncc1` [ISONIAZID]: the “log(activity)” value in data set [8] is 2.6. In data set [2], this compound displayed an IC50 of 0.131 µM, an IC90 of 0.2 µM and an MIC of 0.313 µM (≈ 0.0429 µg/mL). In [9], the “log(activity)” value was 2.7. In data set [10], this compound displayed an IC50 of 0.19 µM and an IC90 of 0.24 µM.

On to `O=C(Cn1cnc([N+](=O)[O-])n1)Nc1nc(-c2ccc(F)c(F)c2)cs1`, for which the IC50 in data set [11] stood at 78 µM; in data set [2], 27 µM; in data set [3], 8.7 µM; in data set [7], 55 µM. In addition, the Papp in data set [12] is on record as 19.9 ×10⁻⁶ cm/s; in data set [15] it was 37.7 ×10⁻⁶ cm/s. Also, the IC90 in data set [2] and in data set [3] was 39 µM each time. Moreover, the figures for the MIC in [2] and in data set [3] were 37 µM (≈ 13.6 µg/mL) and more than 200 µM, respectively. The “log(activity)” value in data set [13] stood at 2.4. Further, the MBC in data set [4] amounted to 20 µM (≈ 7.33 µg/mL). This compound showed a fraction unbound at 4 h, 5 µM in [14] of 0.002. Moreover, the half-life at 1 µM in data set [16] and in data set [17] was more than 3 h each time.

As a reminder, the IC50 is the concentration that inhibits the measured activity by half. A word on the IC90: it is the point of the concentration-response curve where the effect stands at 90%. What is called MIC is the lowest concentration that inhibits growth of the organism. One may read the MBC as the lowest tested concentration that kills the bacteria rather than only halting them. In general, Papp refers to a coefficient for how fast a substance crosses the barrier. Usually fraction unbound stands for free concentration divided by total concentration. As a reminder, the half-life is the time needed for the level to fall by half in the phase considered.

Values taken from ChEMBL document CHEMBL4177599, “The antitubercular activity of various nitro(triazole/imidazole)-based compounds” (Bioorg Med Chem, 2017).
